Laboratory results reported in PubChem BioAssay AID248 (DTP/NCI, 2004).
Several values for one entry are separate records, joined by “and”; a condition that tells them apart may be missing. Equal entries are not always repeated. Toxic doses and inconclusive results are not listed.

Test system: L1210 leukemia ip in BDF1 mice, survival T/C
Assay: NCI In Vivo Anticancer Drug Screen. Data for tumor model L1210 Leukemia (intraperitoneal) in B6D2F1 (BDF1) mice
Conditions: higher = longer survival
Method in brief: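 Transplantable tumor model; survival measured in treated vs vehicle control mice. Value = treated/control.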

In the case of COc1cc([C@@H]2c3cc4c(cc3[C@@H](OC3OC5COC(C)OC5C(O)C3O)[C@H]3COC(=O)[C@H]23)OCO4)cc(OC)c1O (some centres not stated), the T/C (endpoint: mean survival time, dose: 1.8 mg/kg/injection, schedule: Q03HX016 (ip), vehicle: saline) was 292 % of control, the T/C (endpoint: mean survival time, dose: 1.8 mg/kg/injection, schedule: Q03HX024 (ip), vehicle: saline) was 315 % of control and the T/C (endpoint: mean survival time, dose: 2.0 mg/kg/injection, schedule: Q01DX009 (ip), vehicle: Klucel (hydroxypropylcellulose) (HPC)) was 161 % of control and 172 % of control. For the same molecule, the T/C (endpoint: mean survival time, dose: 2.7 mg/kg/injection, schedule: Q03HX016 (ip), vehicle: saline) was 510 % of control, the T/C (endpoint: mean survival time, dose: 2.7 mg/kg/injection, schedule: Q03HX024 (ip), vehicle: saline) was 600 % of control and the T/C (endpoint: mean survival time, dose: 4.0 mg/kg/injection, schedule: Q01DX001 (sc), vehicle: Klucel (hydroxypropylcellulose) (HPC)) was 97 % of control. The T/C (endpoint: mean survival time, dose: 4.0 mg/kg/injection, schedule: Q01DX001 (sc), vehicle: clinical formulation) was 102 % of control, the T/C (endpoint: mean survival time, dose: 4.0 mg/kg/injection, schedule: Q01DX009 (ip), vehicle: Klucel (hydroxypropylcellulose) (HPC)) was 104 % of control and 196 % of control and 266 % of control and the T/C (endpoint: mean survival time, dose: 4.0 mg/kg/injection, schedule: Q01DX009 (sc), vehicle: clinical formulation) was 183 % of control. For the same molecule, the T/C (endpoint: mean survival time, dose: 4.0 mg/kg/injection, schedule: Q03HX016 (ip), vehicle: saline) was 409 % of control, the T/C (endpoint: mean survival time, dose: 4.0 mg/kg/injection, schedule: Q03HX016 (oral), vehicle: Klucel (hydroxypropylcellulose) (HPC)) was 105 % of control and the T/C (endpoint: mean survival time, dose: 4.0 mg/kg/injection, schedule: Q03HX024 (ip), vehicle: saline) was 568 % of control. The T/C (endpoint: mean survival time, dose: 4.5 mg/kg/injection, schedule: Q03HX024 (ip), vehicle: saline) was 409 % of control, the T/C (endpoint: mean survival time, dose: 6.0 mg/kg/injection, schedule: Q03HX016 (ip), vehicle: saline) was 154 % of control and the T/C (endpoint: mean survival time, dose: 8.0 mg/kg/injection, schedule: Q01DX001 (sc), vehicle: Klucel (hydroxypropylcellulose) (HPC)) was 103 % of control. For the same molecule, the T/C (endpoint: mean survival time, dose: 8.0 mg/kg/injection, schedule: Q01DX001 (sc), vehicle: clinical formulation) was 106 % of control, the T/C (endpoint: mean survival time, dose: 8.0 mg/kg/injection, schedule: Q01DX009 (sc), vehicle: clinical formulation) was 180 % of control and the T/C (endpoint: mean survival time, dose: 8.0 mg/kg/injection, schedule: Q03HX016 (oral), vehicle: Klucel (hydroxypropylcellulose) (HPC)) was 105 % of control. For the same molecule, the T/C (endpoint: mean survival time, dose: 8.0 mg/kg/injection, schedule: Q04DX003 (ip), vehicle: Klucel (hydroxypropylcellulose) (HPC)) was 225 % of control, the T/C (endpoint: mean survival time, dose: 12.0 mg/kg/injection, schedule: Q03DX003 (ip), vehicle: saline) was 319 % of control and the T/C (endpoint: mean survival time, dose: 12.0 mg/kg/injection, schedule: Q04DX003 (ip), vehicle: saline) was 213 % of control. The T/C (endpoint: mean survival time, dose: 16.0 mg/kg/injection, schedule: Q01DX001 (sc), vehicle: Klucel (hydroxypropylcellulose) (HPC)) was 106 % of control, the T/C (endpoint: mean survival time, dose: 16.0 mg/kg/injection, schedule: Q01DX001 (sc), vehicle: clinical formulation) was 117 % of control and the T/C (endpoint: mean survival time, dose: 16.0 mg/kg/injection, schedule: Q01DX009 (sc), vehicle: Klucel (hydroxypropylcellulose) (HPC)) was 208 % of control. The T/C (endpoint: mean survival time, dose: 16.0 mg/kg/injection, schedule: Q01DX009 (sc), vehicle: clinical formulation) was 187 % of control, the T/C (endpoint: mean survival time, dose: 16.0 mg/kg/injection, schedule: Q03HX016 (oral), vehicle: Klucel (hydroxypropylcellulose) (HPC)) was 105 % of control and the T/C (endpoint: mean survival time, dose: 16.0 mg/kg/injection, schedule: Q08DX002 (ip), vehicle: Klucel (hydroxypropylcellulose) (HPC)) was 157 % of control. For the same molecule, the T/C (endpoint: mean survival time, dose: 18.0 mg/kg/injection, schedule: Q03DX003 (ip), vehicle: saline) was 395 % of control, the T/C (endpoint: mean survival time, dose: 18.0 mg/kg/injection, schedule: Q04DX003 (ip), vehicle: saline) was 372 % of control and the T/C (endpoint: mean survival time, dose: 27.0 mg/kg/injection, schedule: Q03DX003 (ip), vehicle: saline) was 552 % of control. The T/C (endpoint: mean survival time, dose: 27.0 mg/kg/injection, schedule: Q04DX003 (ip), vehicle: saline) was 506 % of control, the T/C (endpoint: mean survival time, dose: 32.0 mg/kg/injection, schedule: Q01DX001 (sc), vehicle: Klucel (hydroxypropylcellulose) (HPC)) was 115 % of control and the T/C (endpoint: mean survival time, dose: 32.0 mg/kg/injection, schedule: Q01DX009 (oral), vehicle: Klucel (hydroxypropylcellulose) (HPC)) was 109 % of control. The T/C (endpoint: mean survival time, dose: 32.0 mg/kg/injection, schedule: Q03HX016 (oral), vehicle: Klucel (hydroxypropylcellulose) (HPC)) was 119 % of control, the T/C (endpoint: mean survival time, dose: 32.0 mg/kg/injection, schedule: Q04DX003 (oral), vehicle: Klucel (hydroxypropylcellulose) (HPC)) was 109 % of control and the T/C (endpoint: mean survival time, dose: 32.0 mg/kg/injection, schedule: Q08DX002 (ip), vehicle: Klucel (hydroxypropylcellulose) (HPC)) was 338 % of control. For the same molecule, the T/C (endpoint: mean survival time, dose: 40.0 mg/kg/injection, schedule: Q03DX003 (ip), vehicle: saline) was 562 % of control, the T/C (endpoint: mean survival time, dose: 40.0 mg/kg/injection, schedule: Q04DX003 (ip), vehicle: saline) was 584 % of control and the T/C (endpoint: mean survival time, dose: 50.0 mg/kg/injection, schedule: Q01DX001 (ip), vehicle: Klucel (hydroxypropylcellulose) (HPC)) was 276 % of control. For the same molecule, the T/C (endpoint: mean survival time, dose: 50.0 mg/kg/injection, schedule: Q01DX001 (ip), vehicle: saline) was 116 % of control, the T/C (endpoint: mean survival time, dose: 60.0 mg/kg/injection, schedule: Q03DX003 (ip), vehicle: saline) was 86 % of control and the T/C (endpoint: mean survival time, dose: 64.0 mg/kg/injection, schedule: Q01DX001 (oral), vehicle: Klucel (hydroxypropylcellulose) (HPC)) was 103 % of control. For the same molecule, the T/C (endpoint: mean survival time, dose: 64.0 mg/kg/injection, schedule: Q01DX001 (sc), vehicle: clinical formulation) was 120 % of control, the T/C (endpoint: mean survival time, dose: 64.0 mg/kg/injection, schedule: Q03HX016 (oral), vehicle: Klucel (hydroxypropylcellulose) (HPC)) was 108 % of control and the T/C (endpoint: mean survival time, dose: 64.0 mg/kg/injection, schedule: Q04DX003 (oral), vehicle: Klucel (hydroxypropylcellulose) (HPC)) was 123 % of control. The T/C (endpoint: mean survival time, dose: 64.0 mg/kg/injection, schedule: Q08DX002 (ip), vehicle: Klucel (hydroxypropylcellulose) (HPC)) was 417 % of control, the T/C (endpoint: mean survival time, dose: 100.0 mg/kg/injection, schedule: Q01DX001 (ip), vehicle: Klucel (hydroxypropylcellulose) (HPC)) was 448 % of control and the T/C (endpoint: mean survival time, dose: 100.0 mg/kg/injection, schedule: Q01DX001 (ip), vehicle: saline) was 176 % of control. For the same molecule, the T/C (endpoint: mean survival time, dose: 128.0 mg/kg/injection, schedule: Q01DX001 (oral), vehicle: Klucel (hydroxypropylcellulose) (HPC)) was 104 % of control and 106 % of control, the T/C (endpoint: mean survival time, dose: 128.0 mg/kg/injection, schedule: Q01DX001 (oral), vehicle: clinical formulation) was 109 % of control and the T/C (endpoint: mean survival time, dose: 128.0 mg/kg/injection, schedule: Q03HX016 (oral), vehicle: Klucel (hydroxypropylcellulose) (HPC)) was 118 % of control. For the same molecule, the T/C (endpoint: mean survival time, dose: 128.0 mg/kg/injection, schedule: Q08DX002 (ip), vehicle: Klucel (hydroxypropylcellulose) (HPC)) was 119 % of control, the T/C (endpoint: mean survival time, dose: 256.0 mg/kg/injection, schedule: Q01DX001 (oral), vehicle: Klucel (hydroxypropylcellulose) (HPC)) was 104 % of control and 110 % of control and the T/C (endpoint: mean survival time, dose: 256.0 mg/kg/injection, schedule: Q01DX001 (oral), vehicle: clinical formulation) was 106 % of control. The T/C (endpoint: mean survival time, dose: 256.0 mg/kg/injection, schedule: Q01DX001 (sc), vehicle: Klucel (hydroxypropylcellulose) (HPC)) was 166 % of control, the T/C (endpoint: mean survival time, dose: 256.0 mg/kg/injection, schedule: Q01DX001 (sc), vehicle: clinical formulation) was 188 % of control and the T/C (endpoint: mean survival time, dose: 256.0 mg/kg/injection, schedule: Q01DX009 (oral), vehicle: Klucel (hydroxypropylcellulose) (HPC)) was 103 % of control. The T/C (endpoint: mean survival time, dose: 512.0 mg/kg/injection, schedule: Q01DX001 (oral), vehicle: Klucel (hydroxypropylcellulose) (HPC)) was 106 % of control and 118 % of control, the T/C (endpoint: mean survival time, dose: 512.0 mg/kg/injection, schedule: Q01DX001 (oral), vehicle: clinical formulation) was 165 % of control and the T/C (endpoint: mean survival time, dose: 512.0 mg/kg/injection, schedule: Q01DX009 (oral), vehicle: Klucel (hydroxypropylcellulose) (HPC)) was 91 % of control. For the same molecule, the T/C (endpoint: mean survival time, dose: 1024.0 mg/kg/injection, schedule: Q01DX001 (oral), vehicle: Klucel (hydroxypropylcellulose) (HPC)) was 111 % of control, the T/C (endpoint: median survival time, dose: 2.0 mg/kg/injection, schedule: Q01DX009 (ip), vehicle: saline) was 172 % of control and the T/C (endpoint: median survival time, dose: 2.0 mg/kg/injection, schedule: Q01DX009 (sc), vehicle: Klucel (hydroxypropylcellulose) (HPC)) was 121 % of control. For the same molecule, the T/C (endpoint: median survival time, dose: 4.0 mg/kg/injection, schedule: Q01DX009 (ip), vehicle: saline) was 188 % of control, the T/C (endpoint: median survival time, dose: 8.0 mg/kg/injection, schedule: Q01DX009 (ip), vehicle: saline) was 611 % of control and the T/C (endpoint: median survival time, dose: 8.0 mg/kg/injection, schedule: Q01DX009 (sc), vehicle: Klucel (hydroxypropylcellulose) (HPC)) was 168 % of control. For the same molecule, the T/C (endpoint: median survival time, dose: 16.0 mg/kg/injection, schedule: Q01DX009 (sc), vehicle: Klucel (hydroxypropylcellulose) (HPC)) was 110 % of control and the T/C (endpoint: median survival time, dose: 32.0 mg/kg/injection, schedule: Q01DX009 (sc), vehicle: Klucel (hydroxypropylcellulose) (HPC)) was 89 % of control.

For O=S1(=O)CC23C=CC=CC2(CCCC3)C1Cl (configuration not stated), the T/C (endpoint: mean survival time, dose: 25.0 mg/kg/injection, schedule: Q01DX009 (ip), vehicle: Klucel (hydroxypropylcellulose) (HPC)) was 94 % of control, the T/C (endpoint: mean survival time, dose: 50.0 mg/kg/injection, schedule: Q01DX009 (ip), vehicle: Klucel (hydroxypropylcellulose) (HPC)) was 102 % of control and the T/C (endpoint: mean survival time, dose: 100.0 mg/kg/injection, schedule: Q01DX009 (ip), vehicle: Klucel (hydroxypropylcellulose) (HPC)) was 94 % of control.

With COC(=O)CCC(C)C1CCC2C3CCC4CC(OC(=O)c5ccccc5)CCC4(C)C3CC(=O)C12C (configuration not stated) the T/C (endpoint: mean survival time, dose: 100.0 mg/kg/injection, schedule: Q01DX001 (sc), vehicle: steriod suspending solution) was 102 % of control, the T/C (endpoint: mean survival time, dose: 100.0 mg/kg/injection, schedule: Q01DX009 (sc), vehicle: steriod suspending solution) was 93 % of control and the T/C (endpoint: mean survival time, dose: 200.0 mg/kg/injection, schedule: Q01DX001 (sc), vehicle: steriod suspending solution) was 106 % of control. For the same molecule, the T/C (endpoint: mean survival time, dose: 200.0 mg/kg/injection, schedule: Q01DX009 (sc), vehicle: steriod suspending solution) was 98 % of control, the T/C (endpoint: mean survival time, dose: 400.0 mg/kg/injection, schedule: Q01DX001 (sc), vehicle: steriod suspending solution) was 104 % of control and the T/C (endpoint: mean survival time, dose: 400.0 mg/kg/injection, schedule: Q01DX009 (sc), vehicle: steriod suspending solution) was 99 % of control.
